Reference: ChEMBL document CHEMBL1147544, “N-alkyl-4-[(8-azabicyclo[3.2.1]-oct-3-ylidene)phenylmethyl]benzamides, micro and delta opioid agonists: a micro address” (Bioorg Med Chem Lett, 2004)

Key:
[1] = target: Delta-type opioid receptor (Homo sapiens, UniProt P41143); test: In vitro binding affinity towards opioid receptor delta 1
Mu-type opioid receptor [2] = target: T1, Mu-type opioid receptor (Homo sapiens, UniProt P35372); test: In vitro binding affinity towards opioid receptor mu 1; set-up: species or system unidentified
T1 sequence (P35372 whole entry): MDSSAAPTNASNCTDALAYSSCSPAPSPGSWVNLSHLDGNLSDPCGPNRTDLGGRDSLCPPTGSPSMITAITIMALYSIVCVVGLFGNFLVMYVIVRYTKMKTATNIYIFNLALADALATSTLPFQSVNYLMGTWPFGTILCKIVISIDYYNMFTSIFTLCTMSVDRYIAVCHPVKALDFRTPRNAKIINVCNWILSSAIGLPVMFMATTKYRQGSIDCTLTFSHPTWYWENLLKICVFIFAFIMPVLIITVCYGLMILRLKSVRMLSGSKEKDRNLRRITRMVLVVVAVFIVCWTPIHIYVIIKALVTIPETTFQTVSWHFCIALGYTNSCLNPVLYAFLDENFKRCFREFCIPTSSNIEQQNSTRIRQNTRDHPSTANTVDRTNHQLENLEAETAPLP

Mus musculus = test: Antinociceptive activity by mouse hotplate test (55 degree C, po ); assay type: functional
Mu-type opioid receptor [3] = target: T1, Mu-type opioid receptor; test: Percentage stimulation of [35S]GTP-gamma-S, binding at the opioid receptor mu 1 at 10 uM; assay type: functional

Chain of Delta-type opioid receptor (P41143 whole entry): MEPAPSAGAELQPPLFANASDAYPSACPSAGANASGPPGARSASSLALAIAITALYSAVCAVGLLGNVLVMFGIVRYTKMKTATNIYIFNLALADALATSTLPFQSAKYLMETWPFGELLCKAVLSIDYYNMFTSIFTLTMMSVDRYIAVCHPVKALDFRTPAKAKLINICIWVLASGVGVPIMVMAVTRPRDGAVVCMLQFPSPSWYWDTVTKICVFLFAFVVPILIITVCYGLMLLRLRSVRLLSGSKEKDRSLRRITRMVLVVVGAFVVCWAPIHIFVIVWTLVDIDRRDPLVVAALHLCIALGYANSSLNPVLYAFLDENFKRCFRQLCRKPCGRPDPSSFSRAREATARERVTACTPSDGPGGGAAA

SMILES	Ki [1]	Ki (Mu-type opioid receptor [2])	ED50 (Mus musculus)	Stimulation (Mu-type opioid receptor [3])
CCNC(=O)c1ccc(/C(=C2/C[C@H]3CC[C@@H](C2)N3)c2ccccc2)cc1	5.48 nM	74.7 nM	–	–
CCN(CC)C(=O)c1ccc(/C(=C2\C[C@H]3CC[C@@H](C2)N3CCc2ccccc2)c2ccccc2)cc1	–	–	25 µmol/kg	–
CCNC(=O)c1ccc(/C(=C2\C[C@H]3CC[C@@H](C2)N3C)c2ccccc2)cc1	292 nM	304 nM	–	–
CCNC(=O)c1ccc(/C(=C2/C[C@H]3CC[C@@H](C2)N3C)c2ccccc2)cc1	6.39 nM	42.5 nM	–	–
NC(=O)c1ccc(C(=C2CC3CCC(C2)N3CCc2ccccc2)c2ccccc2)cc1	35.9 nM	39.6 nM	–	–
O=C(NCCF)c1ccc(C(=C2CC3CCC(C2)N3CCc2ccccc2)c2ccccc2)cc1	32 nM	2.99 nM	–	–
CCNC(=O)c1ccc(C(=C2CC3CCC(C2)N3CCc2ccccc2)c2ccc(OC)cc2)cc1	11.3 nM	6.1 nM	–	–
O=C(Nc1nccs1)c1ccc(C(=C2CC3CCC(C2)N3CCc2ccccc2)c2ccccc2)cc1	49.5 nM	53 nM	–	–
O=C(NC1CCCCC1)c1ccc(C(=C2CC3CCC(C2)N3CCc2ccccc2)c2ccccc2)cc1	924 nM	717 nM	–	–
O=C(NC1CC1)c1ccc(C(=C2CC3CCC(C2)N3CCc2ccccc2)c2ccccc2)cc1	20 nM	1.01 nM	–	–
CNC(=O)c1ccc(C(=C2CC3CCC(C2)N3CCc2ccccc2)c2ccccc2)cc1	13 nM	0.14 nM	–	–
C=CCN1[C@@H]2CC[C@H]1C/C(=C(\c1ccccc1)c1ccc(C(=O)NCC)cc1)C2	7.72 nM	19.1 nM	–	–
CC(C)(C)NC(=O)c1ccc(C(=C2CC3CCC(C2)N3CCc2ccccc2)c2ccccc2)cc1	352 nM	608 nM	–	–
O=C(Nc1ccccc1)c1ccc(C(=C2CC3CCC(C2)N3CCc2ccccc2)c2ccccc2)cc1	1520 nM	4240 nM	–	–
C=CCN1[C@@H]2CC[C@H]1C/C(=C(/c1ccccc1)c1ccc(C(=O)NCC)cc1)C2	2.24 nM	10.5 nM	–	–
CCNC(=O)c1ccc(/C(=C2/C[C@H]3CC[C@@H](C2)N3CCc2ccccc2)c2ccccc2)cc1	4.69 nM	7.16 nM	–	–
COCCNC(=O)c1ccc(C(=C2CC3CCC(C2)N3CCc2ccccc2)c2ccccc2)cc1	103 nM	163 nM	–	–
CCNC(=O)c1ccc(/C(=C2\C[C@H]3CC[C@@H](C2)N3CCc2ccccc2)c2ccccc2)cc1	46.7 nM	0.26 nM	25 µmol/kg	490%
CCNC(=O)c1ccc(C(=C2CC3CCC(C2)N3)c2ccc(O)cc2)cc1	4.5 nM	265 nM	–	–

Further lines, with some results ahead:

Ki [1]	Ki (Mu-type opioid receptor [2])	SMILES	ED50 (Mus musculus)	Stimulation (Mu-type opioid receptor [3])
0.152 nM	0.664 nM	CCNC(=O)c1ccc(C(=C2CC3CCC(C2)N3Cc2cccs2)c2cccc(O)c2)cc1	–	–
1.45 nM	13.8 nM	C=CCN1C2CCC1CC(=C(c1ccc(C(=O)NCC)cc1)c1cccc(OC)c1)C2	–	–
–	0.222 nM	CCNC(=O)c1ccc(C(=C2CC3CCC(C2)N3CCc2ccccc2)c2cccc(O)c2)cc1	–	–
13.2 nM	96 nM	CCNC(=O)c1ccc(C(=C2CC3CCC(C2)N3)c2cccc(OC)c2)cc1	–	–
0.86 nM	17 nM	CCNC(=O)c1ccc(C(=C2CC3CCC(C2)N3Cc2ccccn2)c2ccccc2)cc1	–	–
2.09 nM	15 nM	CCNC(=O)c1ccc(C(=C2CC3CCC(C2)N3Cc2ccccc2Cl)c2cccc(O)c2)cc1	–	–
63.4 nM	93 nM	CCNC(=O)c1ccc(C(=C2CC3CCC(C2)N3CCOc2ccccc2)c2ccccc2)cc1	–	–
26.2 nM	76 nM	CCNC(=O)c1ccc(C(=C2CC3CCC(C2)N3CCO)c2ccccc2)cc1	–	–
5.67 nM	122 nM	CCNC(=O)c1ccc(C(=C2CC3CCC(C2)N3Cc2ccccc2Cl)c2ccc(OC)cc2)cc1	–	–
1.32 nM	13.5 nM	CCNC(=O)c1ccc(C(=C2CC3CCC(C2)N3Cc2cccs2)c2ccc(OC)cc2)cc1	–	–
0.25 nM	6.77 nM	CCNC(=O)c1ccc(C(=C2CC3CCC(C2)N3Cc2cccs2)c2ccc(O)cc2)cc1	–	–
0.51 nM	3.79 nM	CCNC(=O)c1ccc(C(=C2CC3CCC(C2)N3Cc2cccs2)c2cccc(OC)c2)cc1	–	–
6.66 nM	57.7 nM	CCNC(=O)c1ccc(C(=C2CC3CCC(C2)N3Cc2ccccc2Cl)c2cccc(OC)c2)cc1	–	–
7.8 nM	21.7 nM	CCNC(=O)c1ccc(C(=C2CC3CCC(C2)N3CCc2ccccc2)c2ccc(O)cc2)cc1	–	–
0.384 nM	9.58 nM	C=CCN1C2CCC1CC(=C(c1ccc(C(=O)NCC)cc1)c1cccc(O)c1)C2	–	–
12.3 nM	4.8 nM	CCNC(=O)c1ccc(C(=C2CC3CCC(C2)N3CCCc2ccccc2)c2ccccc2)cc1	–	–
0.72 nM	2.04 nM	CCNC(=O)c1ccc(C(=C2CC3CCC(C2)N3CC=C(C)C)c2cccc(OC)c2)cc1	–	–
15.9 nM	61 nM	CCNC(=O)c1ccc(C(=C2CC3CCC(C2)N3Cc2[nH]cnc2C)c2ccccc2)cc1	–	–
2.02 nM	2.52 nM	CCNC(=O)c1ccc(C(=C2CC3CCC(C2)N3CC=C(C)C)c2cccc(O)c2)cc1	–	–
3.88 nM	101 nM	CCNC(=O)c1ccc(C(=C2CC3CCC(C2)N3Cc2c[nH]cn2)c2ccccc2)cc1	–	–
0.93 nM	8.72 nM	CCNC(=O)c1ccc(C(=C2CC3CCC(C2)N3Cc2ccccc2Cl)c2ccc(O)cc2)cc1	–	–
22 nM	1.6 nM	CCCNC(=O)c1ccc(C(=C2CC3CCC(C2)N3CCc2ccccc2)c2ccccc2)cc1	–	–
23.7 nM	84 nM	CCNC(=O)c1ccc(C(=C2CC3CCC(C2)N3CCc2c[nH]c3ccccc23)c2ccccc2)cc1	–	–
20.8 nM	59 nM	CCNC(=O)c1ccc(C(=C2CC3CCC(C2)N3c2cccn2C)c2ccccc2)cc1	–	–
19.8 nM	0.654 nM	CCNC(=O)c1ccc(C(=C2CC3CCC(C2)N3CCc2ccccc2)c2cccc(OC)c2)cc1	–	–
49.3 nM	21.7 nM	CCCCNC(=O)c1ccc(C(=C2CC3CCC(C2)N3CCc2ccccc2)c2ccccc2)cc1	–	–
